Source: US11351209B2 (priority 2016, dated 2022)
“Also recorded” adds a separate entry of the source. Like-named read-outs stand apart in the source and are kept apart here.

Tests used:
[1] = format: in vivo; settings: Rats, oral administration
p110 delta protein = format: cell-based, BALB/c mice
orthotopic 4T1 tumours = test: Efficacy study, oral IC87114 and intravenous VVL15, orthotopic 4T1 tumours; format: in vivo, BALB/c mice; settings: 4T1 orthotopic; IC87114 75 mg kg^−1 oral gavage three hours before intravenous VVL15 (Group D); vs all other groups
CT26 flank tumours [2] = test: Efficacy study, oral IC87114 and intravenous VVL15, CT26 flank tumours; format: in vivo, BALB/c mice; settings: IC87114 50 mg kg^−1 oral gavage three hours before intravenous VVL15 (Group D), vs all other groups
[3] = test system: bone marrow derived macrophages; format: cell-based, BALB/c mice
Vaccinia virus = settings: in vivo
splenocytes = test: Ex vivo interferon gamma ELISA on splenocytes; format: in vivo, BALB/c mice; settings: CT26-bearing mice, IC87114 75 mg kg^−1 oral three hours before intravenous VVL15
Method: Interferon gamma assay on splenocytes derived from BALB/c mice bearing CT26 tumours. Fifteen mice were subcutaneously injected in their shaved right flank with 1×10^6 CT26 tumour cells. […] An interferon (IFN) gamma ELISA was performed. Anti-tumour immunity: splenocytes were stimulated with mitomycin treated CT26 cells, there was no statistically significant difference between any of the groups.
FIG. 2E illustrates an ex vivo interferon gamma assay performed on splenocytes derived from BALB/c mice bearing CT26 tumours. […] Thus pre-treatment with IC87114 appears to reduce in magnitude the subsequent development of an anti-viral response. This potentially could mean that aside from the effect IC87114 has on macrophages at an early time point it has a separate more lasting effect that leads to reduced anti-viral immunity and to the establishment of an effective infection of the tumours leading to the observed improvement in efficacy compared to virus alone.

CT26 flank tumours [4] = format: in vivo, BALB/c mice; settings: 75 mg kg^−1 IC87114 three hours before intravenous 1×10^8 PFU VVL15, days 1, 3, 4 and 5, vs vehicle buffer
[5] = several trials; cited from earlier work

SMILES	time to maximum plasma concentration [1] [h]	p110 delta protein expression (p110 delta protein)	survival (Kaplan-Meier) (orthotopic 4T1 tumours)	survival (Kaplan-Meier) (CT26 flank tumours [2])	viral attachment to wild-type macrophages compared with p110 delta knock in macrophages ([3]; wild-type macrophages pretreated 2 hours with IC87114, vs untreated wild-type (P<0.05 or P<0.01))	amount of VVL15 attached to macrophages (qPCR) ([3]; wildtype macrophages pretreated 2 hours with IC87114 vs untreated (P<0.001))	Vaccinia virus detected on macrophages (confocal microscopy) ([3]; wildtype macrophages pretreated 2 hours with IC87114 vs vehicle buffer)	localisation of Vaccinia virus to the spleen (Vaccinia virus)	number of cells immunoreactive for Vaccinia coat protein per ×200 field in spleen (Vaccinia virus)	anti-tumour immunity: IFN gamma from splenocytes stimulated with mitomycin treated CT26 cells (splenocytes)	anti-viral immunity: IFN gamma from splenocytes stimulated with B8R protein (splenocytes; vs virus alone)	tumour luminescence signal (CT26 flank tumours [4])	tumour luminescence signal (CT26 flank tumours [4]; listed as IC87714)	toxicities in trials [5]
Cc1ccccc1-n1c(Cn2cnc3c(N)ncnc32)nc2cccc(C)c2c1=O [IC87114, 2-[(6-amino-9H-purin-9-yl)methyl]-5-methyl-3-(2-methylphenyl)-4(3H)-quinazolinone]	4	does not appear to alter the amount of p110 delta protein detected	improves survival; also recorded: survived significantly longer than all other groups; also recorded: survival advantage	improves survival; also recorded: survived significantly longer than all the other groups; also recorded: survival advantage	statistically significant from untreated wild-type macrophages	statistically significantly different from untreated macrophages; also recorded: significantly reduces VVL15 attachment to macrophages; also recorded: reduction in viral attachment to macrophages	less Vaccinia virus detected	reduces the localisation of Vaccinia virus to the spleen	statistically significant difference between the groups	no effect on anti-tumour immunity	attenuates anti-viral immunity; also recorded: reduced levels of IFN gamma	significantly more signal	consistently higher tumour luminescence compared to control	
CC[C@H](Nc1ncnc2[nH]cnc12)c1nc2cccc(F)c2c(=O)n1-c1ccccc1 [Idelalisib, 5-Fluoro-3-phenyl-2-[(1S)-1-(7H-purin-6-ylamino)propyl]-4(3H)-quinazolinone]														minimal toxicities
